Values after ≈ are worked out from the molar mass of the structure shown.
How the values were obtained:
[1] = system: several DNA and RNA viruses; settings: against several DNA and RNA viruses; cited from earlier work
[2] = system: Buffalo Green Monkey Kidney Cells (ATCC CCL 81)
[3] = system: Mycobacterium tuberculosis strain H37Rv; assay: microbe, parasite or virus in culture; assay type: cell-based; settings: read-out: MIC VERSUS H37Rv
[4] = system: Poliovirus Type III vaccine strain (ATCC VR 300); assay: microbe, parasite or virus in culture; assay type: cell-based
[5] = system: HEP 2 Cells (ATCC HB 8065); assay: Antiviral assay of Respiratory Syncytial Virus: toxicity to uninfected cells; assay type: cell-based
Experimental: c. […] The cell count wells receive media only.
d. The cultures are incubated for 24 hr.
e. […] Scoring is as described above.

Streptococcus pyogenes = assay: microbe, parasite or virus in culture; settings: 48 h
[6] = system: Poliovirus Type III vaccine strain (ATCC VR 300); assay type: cell-based

SMILES	broad spectrum antiviral activity [1]	TOXICITY [2]	toxicity (in words) [2]	MIC [3] [µg/mL]	VIRUS YIELD (PFU/mL) [4]	VIRUS YIELD FOLD-REDUCTION [4]	MIC (Streptococcus pyogenes) [µg/mL]	also measured
Nc1ncnc2c1ncn2C[C@@H](CO)OCP(=O)(O)O [(S)-9-(3'-dihydroxy-2'-phosphonylmethoxypropyl)adenine]	broad spectrum antiviral activity	–	–	–	–	–	–	–
Nc1ncnc2c1ncn2C[C@H](O)CO [(S)-9-(2',3'-dihydroxypropyl)adenine]	broad spectrum antiviral activity	–	–	–	–	–	–	–
CCCCCCCCCCCCCCCCCCOCC(CO)n1ccnc1 (stereo not shown) [CPR 1005, 1-O-octadecyl-2-(1-imidazolyl)-2-deoxy-glycerol]	–	N	not toxic at the concentrations tested	6.25 (≈ 15.8 µM)	2.8 × 10^3 PFU/mL	1.03×10^4 fold	10 (≈ 25.3 µM)	TOXICITY ([5]; Table 4, HEP 2 cells, 24 hr, final concentration 100 (mM)): N; toxicity (in words) ([5]; at the dosages tested): not toxic at the dosages tested
CCCCCCCCCCCCCCCCOCC(CO)n1ccnc1 (stereo not shown) [CPR 1104, 1-O-hexadecyl-2-(1-imidazolyl)-2-deoxy-glycerol]	–	–	–	1.6 (≈ 4.36 µM)	–	–	–	–
CCCCCCCCCCCCCCCCCCOCC(CO)n1cncn1 (stereo not shown) [CPR 1004, 1-O-octadecyl-2-(1-triazolyl)-2-deoxy-glycerol]	–	N	not toxic at the concentrations tested	12.5 (≈ 31.6 µM)	7.0 × 10^5 PFU/mL	41.7 fold	1 (≈ 2.53 µM)	VIRAL CPE [6]: ±; activity at 100000 µM ([4]; Enterovirus C, read-out: VIRUS YIELD (YIELD)): 2.4%
